Measurements: ChEMBL document CHEMBL1122462, “Potential antiatherosclerotic agents. 4. [(Functionalized-alkyl)amino]benzoic acid analogues of cetaben” (1983)
“And” between values parts separate entries of the source, which are not always exact repeats. Identical values can stand only once.

What was measured:
Rattus norvegicus [1] = experiment: In vivo Triglyceride lowering activity at dose as 0.01 % of the diet.; format: functional
Rattus norvegicus [2] = experiment: In vivo Triglyceride lowering activity at a dose of 0.10 % of the diet; format: functional
Rattus norvegicus [3] = experiment: In vivo Sterol lowering activity at dose as 0.01 % of the diet.; format: functional
Rattus norvegicus [4] = experiment: In vivo Sterol lowering activity at dose as 0.03 % of the diet.; format: functional
Rattus norvegicus [5] = experiment: In vivo Triglyceride lowering activity at dose as 0.03 % of the diet.; format: functional
Rattus norvegicus [6] = experiment: In vivo Sterol lowering activity at dose as 0.10 % of the diet.; format: functional
[7] = molecular target: T1, Sterol O-acyltransferase 1 (Rattus norvegicus) (UniProt O70536); experiment: In vitro inhibitory activity against acyl coenzyme A:cholesterol acyltransferase; set-up: concentration or dose not given beside the values; details: concentration not given here
T1 sequence (whole entry): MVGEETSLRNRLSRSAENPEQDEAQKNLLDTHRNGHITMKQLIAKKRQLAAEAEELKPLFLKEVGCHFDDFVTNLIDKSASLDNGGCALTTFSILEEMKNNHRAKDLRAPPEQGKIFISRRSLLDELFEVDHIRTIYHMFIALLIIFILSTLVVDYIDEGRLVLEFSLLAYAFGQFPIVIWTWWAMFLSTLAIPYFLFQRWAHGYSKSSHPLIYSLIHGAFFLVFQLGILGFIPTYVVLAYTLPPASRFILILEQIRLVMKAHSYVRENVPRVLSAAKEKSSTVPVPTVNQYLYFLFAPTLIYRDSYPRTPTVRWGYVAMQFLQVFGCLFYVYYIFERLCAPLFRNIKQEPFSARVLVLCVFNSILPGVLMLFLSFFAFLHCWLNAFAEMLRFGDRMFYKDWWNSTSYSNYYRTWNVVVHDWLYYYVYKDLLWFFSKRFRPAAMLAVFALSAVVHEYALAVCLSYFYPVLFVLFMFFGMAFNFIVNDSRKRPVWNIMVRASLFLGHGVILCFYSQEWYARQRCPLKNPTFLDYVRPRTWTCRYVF

Rattus norvegicus [8] = experiment: In vivo Triglyceride lowering activity at dose as 0.10 % of the diet.; format: functional
Rattus norvegicus [9] = experiment: In vivo sterol lowering activity, dosed as 0.03 % of the diet; format: functional
Rattus norvegicus [10] = experiment: In vivo sterol lowering activity at dose of 0.10 % of the diet; format: functional
Rattus norvegicus [11] = experiment: In vivo Triglyceride lowering activity at dose as 0.03 % of the diet; format: functional
Rattus norvegicus [12] = experiment: In vivo Triglyceride lowering activity at dose as 0.01 % of the diet; format: functional
Rattus norvegicus [13] = experiment: In vivo Sterol lowering activity at dose as 0.01% of the diet; format: functional

Row | SMILES | Diet (Rattus norvegicus [1]) | serum triglyceride level (% of control) (Rattus norvegicus [2]) | Diet (Rattus norvegicus [3]) | Diet (Rattus norvegicus [4]) | Diet (Rattus norvegicus [5]) | Diet (Rattus norvegicus [6]) | inhibition [7] | Diet (Rattus norvegicus [8]) | serum sterol level, percent of control (Rattus norvegicus [9]) | serum sterol level, % of control (Rattus norvegicus [10]) | triglyceride lowering activity (Rattus norvegicus [11]) | serum triglyceride level (% of control) (Rattus norvegicus [12]) | serum sterol level, percent of control (Rattus norvegicus [13])
1 | O=C(O)c1ccc(NCCC2CCCC2)cc1 | 78% | 64% | 92% | 94% | 83% | 88% |  |  |  |  |  |  | 
2 | CCOC(=O)c1ccc(NCCC2CCCC2)cc1 |  | 69% |  |  |  | 96% | 60% |  |  |  |  |  | 
3 | O=C(O)CCNc1ccc(C(=O)O)cc1 | 97% | 72% | 101% | 118% | 108% | 100% | 6% and 0% |  |  |  |  |  | 
4 | CCOC(=O)CCNc1ccc(C(=O)OCC)cc1 | 109% |  | 97% | 100% | 98% | 94% | 28% | 103% |  |  |  |  | 
5 | NC(=O)CNc1ccc(C(=O)O)cc1 |  |  |  |  |  | 100% | 17% | 102% |  |  |  |  | 
6 | CCOC(=O)CCCNc1ccc(C(=O)OCC)cc1 |  |  |  |  |  | 93% | 11% | 103% |  |  |  |  | 
7 | CCOC(=O)c1ccc(NC(=O)CCC(=O)OC)cc1 | 99% |  | 86% | 99% | 92% | 97% | 2% | 114% |  |  |  |  | 
8 | CCCC(Nc1ccc(C(=O)O)cc1)C(=O)O (stereo unspecified) | 93% |  | 95% |  | 74% |  | 0% |  | 87% |  |  |  | 
9 | CCOC(=O)CCCCCNc1ccc(C(=O)OCC)cc1 | 68% |  | 96% | 92% | 72% | 84% | 18% | 71% |  |  |  |  | 
10 | N#CCCCNc1ccc(C(=O)O)cc1 |  |  |  |  |  | 94% | 8% | 93% |  |  |  |  | 
11 | O=C(O)CCCNc1ccc(C(=O)O)cc1 |  |  |  |  |  | 99% | 0% | 86% |  |  |  |  | 
12 | CCOC(=O)c1ccc(NC(C)C(=O)OCC)cc1 (stereo unspecified) | 123% |  | 107% | 93% | 110% | 107% | 23% | 82% |  |  |  |  | 
13 | CCOC(=O)c1ccc(NCCCC#N)cc1 | 131% |  | 116% | 118% | 113% | 109% | 26% | 97% |  |  |  |  | 
14 | CCOC(=O)CNc1ccc(C(=O)OCC)cc1 | 109% |  | 90% | 100% | 114% | 100% | 24% | 121% |  |  |  |  | 
15 | O=C(O)CN(CC(=O)O)c1ccc(C(=O)O)cc1 | 92% |  | 95% | 89% | 84% | 91% | 14% | 100% |  |  |  |  | 
16 | CCOC(=O)c1ccc(N2CCCC2=O)cc1 |  |  |  |  |  |  | 6% | 72% |  | 84% |  |  | 
17 | CCCC(Nc1ccc(C(=O)OCC)cc1)C(=O)OCC (stereo unspecified) | 93% |  | 103% | 109% | 96% | 102% | 44% | 77% |  |  |  |  | 
18 | CCOC(=O)CN(CC(=O)OCC)c1ccc(C(=O)OCC)cc1 | 77% |  | 93% | 98% | 120% | 100% | 32% | 122% |  |  |  |  | 
19 | O=C(O)CNc1ccc(C(=O)O)cc1 | 90% |  | 89% | 87% | 93% | 98% | 18% | 106% |  |  |  |  | 
20 | O=C(O)CCCCCNc1ccc(C(=O)O)cc1 | 85% |  | 92% | 100% | 91% | 105% | 4% | 102% |  |  |  |  | 
21 | O=C(O)c1ccc(NCC2CCCCC2)cc1 |  | 62% | 95% |  |  |  | 1% |  | 84% | 83% | 71% | 73% | 
22 | O=C(O)c1ccc(NCCCCCCCCCCCO)cc1 |  | 78% |  |  |  |  | < 30% |  | 95% | 99% | 101% | 111% | 93%
23 | CCOC(=O)c1ccc(NCCCCCCCCCCCCC(C)(C)C)cc1 |  | 81% |  |  |  |  | 7% |  | <84% | <83% | 83% | 99% | <89%
24 | CCCCCCCCCCC(C#N)CCCCCNc1ccc(C(=O)O)cc1 (stereo unspecified) |  | <50% |  |  |  |  | < 64% |  | <85% | 83% | <66% | 75% | 96%
